From ChEMBL document CHEMBL1201862, “PubChem BioAssay data set” (2004) come the findings set out here.

Common to all, as to assay: DTP human tumour cell line panel, 48 h
Assay [1] deals with TK-10.
Assay [2] deals with SK-MEL-2.
Assay [3] relates to MDA-MB-231.
In assay [4] the test system is HCT-15.
For assay [5], the system named is Hs-578T.
The test system of assay [6] is IGROV-1.
Assay [7] deals with RXF 393.
Assay [8] deals with UO-31.
In assay [9] the test system is CAKI-1.
Assay [10] concerns SK-OV-3.
The subject of assay [11] is SF-295.
In assay [12] the test system is HOP-62.
For assay [13], the system named is COLO 205.
The test system of assay [14] is LOX IMVI.
The test system of assay [15] is MOLT-4.
Assay [16] deals with NCI/ADR-RES.
Assay [17] deals with RPMI-8226.
In assay [18] the test system is MDA-MB-435.
The test system of assay [19] is PC-3.
The test system of assay [20] is 786-0.

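Grown in 96-well plates, cells were treated for 48 hours with each compound at five concentrations. Insufficient inhibition: endpoint recorded as highest concentration tested. Here, GI50 denotes the concentration required for 50% inhibition of growth.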 Calls of active or inactive are those of the source. No stated cut-off is given here; in the data, active = GI50 up to about 1.1 µM and inactive = higher.

For the molecule `CN(CCCCN(C)CCc1ccc(Cl)c(Cl)c1)CCCCN1CCCC1`, the GI50 (in general, the concentration that inhibits growth by half) in assay [1] was 1.61 µM (inactive); in [2], 1.63 µM (inactive); in assay [3] it was 0.75 µM (active); in [4], 1.69 µM; in assay [5], 0.977 µM (active); in assay [6], 2.2 µM (inactive). Also, the GI50 in assay [7] is 1.32 µM (inactive); in assay [8] it was 0.509 µM (active); in [9], 1.6 µM (inactive); in assay [10], 2.18 µM (inactive); in assay [11] it was 1.83 µM (inactive); in [12], 1.83 µM (inactive). Besides, the GI50 in [13] is 1.29 µM (inactive); in [14], 0.912 µM (active); in [15] it was 3.08 µM (inactive); in [16] it was 3.23 µM (inactive); in assay [17] it was 0.649 µM (active); in assay [18], 0.465 µM (active). For the same molecule, the GI50 in assay [19] is 1.57 µM (inactive); in assay [20], 1.25 µM (inactive).
Turning to `CC(=O)NC1C(OCc2ccccc2)OC(CO)C(O)C1OCC(=O)N[C@@H](C)C(=O)N[C@H](CCC(=O)NCCCCNc1c2ccccc2nc2cccc([N+](=O)[O-])c12)C(N)=O` (stereo partly drawn), the GI50 was 1.47 µM (inactive) in assay [1]; 2.51 µM (inactive) in assay [2]; 2.5 µM (inactive) in assay [3]; 1.97 µM in assay [4]; 3.1 µM (inactive) in assay [5]; 0.804 µM (active) in assay [6]. Further, the GI50 in assay [7] is 1.53 µM (inactive); in assay [8], 2.43 µM (inactive); in assay [9], 1.49 µM (inactive); in [10], 7.59 µM (inactive); in assay [11] it was 3.88 µM (inactive); in assay [12], 3.69 µM (inactive). Moreover, the GI50 in assay [13] is 0.684 µM (active); in assay [14], 2.39 µM (inactive); in assay [15], 1.6 µM (inactive); in assay [16], 16.7 µM (inactive); in assay [17] it was 1.64 µM (inactive); in [18] it was 1.62 µM (inactive). In addition, the results for the GI50 in [19] and in [20] were 1.24 µM (inactive) and 0.998 µM (active), respectively.
With `Brc1ccc(-c2cn3ccncc3n2)cc1`, the GI50 in assay [1] is > 100 µM (inactive); in assay [2] it was > 100 µM (inactive); in assay [3], > 100 µM (inactive); in [4] it was more than 100 µM; in [5] it was > 100 µM (inactive); in assay [6] it was > 100 µM (inactive). For the same molecule, the GI50 in assay [7], in assay [8], in [9], in assay [10], in assay [11] and in assay [12] was > 100 µM (inactive) in each case. Also, the GI50 in assay [13] was > 100 µM (inactive); in assay [14], > 100 µM (inactive); in [15], 60.3 µM (inactive); in [16], > 100 µM (inactive); in [17] it was > 100 µM (inactive); in [18] it was > 100 µM (inactive). Moreover, the GI50 in assay [19] and in [20] was > 100 µM (inactive) throughout.
Turning to `CC(C)(C)[Si](C)(C)OCC1CCC(n2cnc3c(NC(=O)c4ccccc4)ncnc32)O1` (stereo not drawn), the GI50 in [1] is 20.5 µM (inactive); in [2], 19 µM (inactive); in assay [3], 20.7 µM (inactive); in assay [4] it was 18.6 µM; in assay [5], 14 µM (inactive); in assay [6] it was 18.1 µM (inactive). Further, the GI50 in assay [7] was 22 µM (inactive); in [8] it was 1.54 µM (inactive); in [9], 21.4 µM (inactive); in assay [10], 20 µM (inactive); in assay [11], 18.2 µM (inactive); in assay [12], 22 µM (inactive). In addition, the GI50 was 18.5 µM (inactive) in assay [13]; 20.2 µM (inactive) in assay [14]; 18.2 µM (inactive) in assay [15]; 16.6 µM (inactive) in [16]; 33 µM (inactive) in assay [17]; 15.8 µM (inactive) in [18]. The GI50 in assay [19] is 20.6 µM (inactive); in assay [20], 17.5 µM (inactive).
Take `Cc1c(-c2ccccc2)c(-c2ccc(OCCN(C)C)cc2)n2ccccc12`: the GI50 in [1] is 13.2 µM (inactive); in assay [2], 7.74 µM (inactive); in [3] it was 10.9 µM (inactive); in assay [4], 2.55 µM; in [5], 5.41 µM (inactive); in assay [6], 10.1 µM (inactive). Further, the GI50 was 7.69 µM (inactive) in assay [7]; 9.48 µM (inactive) in [8]; 11.2 µM (inactive) in [9]; 15.8 µM (inactive) in assay [10]; 12.2 µM (inactive) in [11]; 13.1 µM (inactive) in [12]. For the same molecule, the GI50 in assay [13] is 1.64 µM (inactive); in assay [14], 2.23 µM (inactive); in [15] it was 3.48 µM (inactive); in assay [16], 13.2 µM (inactive); in assay [17], 2.69 µM (inactive); in [18], 3.79 µM (inactive). The GI50 in assay [19] is 6.34 µM (inactive); in assay [20], 7.11 µM (inactive).
As to `COC1=C(OC)C(=O)C(Sc2ccc3ccccc3c2)=CC1=O`, the GI50 in [1] is 12.2 µM (inactive); in assay [2], 13.6 µM (inactive); in assay [3], 11.4 µM (inactive); in [4] it was 9.68 µM; in assay [5], 14.9 µM (inactive); in assay [6], 12.4 µM (inactive). Moreover, the GI50 in assay [7] was 6.85 µM (inactive); in assay [8] it was 6.11 µM (inactive); in assay [9], 14.7 µM (inactive); in [10] it was 16.1 µM (inactive); in assay [11], 9.42 µM (inactive); in [12], 13.2 µM (inactive). The GI50 in [13] was 7.24 µM (inactive); in assay [14] it was 3.54 µM (inactive); in assay [15], 1.68 µM (inactive); in assay [16], 14.7 µM (inactive); in [17] it was 0.678 µM (active); in assay [18], 4.25 µM (inactive). For the same molecule, the GI50 in [19] is 10 µM (inactive); in assay [20], 3.72 µM (inactive).
As for `CCCCCCCCCCCCCCCCOCC(CCl)OP(=O)(O)OP(=O)(O)OCC1OC(n2ccc(N)nc2=O)C(O)C1O` (stereo not drawn), the GI50 was > 100 µM (inactive) in assay [1]; > 100 µM (inactive) in assay [2]; > 100 µM (inactive) in assay [3]; more than 100 µM in assay [4]; > 100 µM (inactive) in [5]; > 100 µM (inactive) in assay [6]. The GI50 in [7], in [8], in [9], in assay [10], in assay [11] and in [12] was > 100 µM (inactive) each time. Besides, the GI50 in assay [13], in assay [14], in assay [15], in assay [16], in assay [17] and in [18] was > 100 µM (inactive) each time. The GI50 in assay [19] is 87.7 µM (inactive); in assay [20] it was > 100 µM (inactive).
Take `Cc1c(-c2ccccc2)c(C#N)c2nnn(-c3ccc(Cl)cc3)c(=O)n12`: the GI50 is 77.1 µM (inactive) in assay [1]; 26.8 µM (inactive) in assay [2]; 36.3 µM (inactive) in assay [3]; 10.1 µM in assay [4]; 71.4 µM (inactive) in [5]; 32.7 µM (inactive) in [6]. For the same molecule, the GI50 in [7] is 28.2 µM (inactive); in assay [8], 22.5 µM (inactive); in [9], 13.3 µM (inactive); in assay [10], 89.7 µM (inactive); in [11], 7.06 µM (inactive); in assay [12] it was 7.14 µM (inactive). For the same molecule, the GI50 is 11 µM (inactive) in assay [13]; 0.714 µM (active) in [14]; 17.6 µM (inactive) in assay [16]; 23.5 µM (inactive) in assay [17]; 31 µM (inactive) in assay [18]; 22.2 µM (inactive) in [19]. Further, the GI50 in assay [20] is 18.3 µM (inactive).
Take `C/N=C/N(C)c1c2ccccc2nc2ccccc12`: the GI50 in [1] is > 100 µM (inactive); in assay [2] it was > 100 µM (inactive); in [3] it was > 100 µM (inactive); in [4], more than 100 µM; in assay [5], > 100 µM (inactive); in [6], > 100 µM (inactive). Also, the GI50 in assay [7] is > 100 µM (inactive); in [8], 11.6 µM (inactive); in [9], > 100 µM (inactive); in assay [10] it was > 100 µM (inactive); in assay [11], > 100 µM (inactive); in assay [12], > 100 µM (inactive). The GI50 in [13], in [14], in assay [15], in assay [16], in [17] and in assay [18] was > 100 µM (inactive) each time. Besides, the GI50 in assay [19] and in [20] was > 100 µM (inactive) each time.
Regarding `CCOC1CN=C(Nc2cccc3ccccc23)S1` (stereo not drawn), the GI50 was > 10 µM (inactive) in [1]; > 10 µM (inactive) in assay [2]; > 10 µM (inactive) in assay [3]; more than 10 µM in assay [4]; > 10 µM (inactive) in assay [5]; > 10 µM (inactive) in [6]. Also, the GI50 in assay [7], in assay [9], in assay [10], in assay [11], in assay [12] and in assay [13] was > 10 µM (inactive) each time. In addition, the GI50 in assay [14], in [15], in assay [16], in assay [17], in [18] and in [19] was > 10 µM (inactive) each time. In addition, in assay [20], the GI50 was > 10 µM (inactive).
